Values of other authors, collected in patent US8415273B2, “Broadleaf perennial weed control agent for grass, and method for controlling broadleaf perennial weeds in grass” (Nippon Soda Co., Ltd., priority 2007, dated 2013).

What was measured:
[1] = tested on: broadleaf annual weeds such as chickweed and gramineous weeds such as crabgrass
[2] = tested on: turf grasses such as Zoysia japonica and Zoysia tenuifolia; conditions: soil-based herbicide

For `NC(=O)c1nc(-c2ccccc2)n(-c2ccc(Cl)c(COCC(F)(F)C(F)(F)F)c2)n1` [flupoxam, 1-[4-chloro-3-[(2,2,3,3,3-pentafluoropropoxy)methyl]phenyl]-5-phenyl-1H-1,2,4-triazole-3-carboxamide], the “Control action on annual weeds in grass” value [1] is given as “powerful control action” and the “Detrimental effects on turf grasses” value [2] is given as “no detrimental effects”.
